Experimental data as given in patent publication US11413278B2, “Compounds and methods for promoting stress resistance” (priority 2015, dated 2022).
Read-outs that look alike come from different tables or passages of the source.

Columns and labels:
[1] = test system: WI-38 cells; experiment: MMS resistance assay; assay type: cell-based, human; details: for fold induction at 10 µM: Homo sapiens, 12 h, normalized ATP measurement; for Assay 3: MMS-resistant / Assay 5: Triple resistant: YES/NO; for Assay 3: MMS-resistant: * indicates partial; for Assay 5: Triple resistant: H2O2, cadmium and MMS; for Triple resistant: H2O2, CdCl2 and MMS
Outline: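 Resistance to CdCl2 or MMS stress (12 h exposure) was scored in WI-38 fibroblasts pretreated with compound at 0.25–20 μM final, five doses, technical triplicates. MMS plates had compound added 24 h before MMS, after a shift to serum-free DMEM+2% BSA. Significance came from a global variance t-test over two independent runs.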

[2] = test system: PC12 cells expressing poly(Q)103-Htt-EGFP; experiment: Poly(Q) toxicity & viability analysis (cellular model of Huntington's disease); assay type: cell-based, rat; details: for M = Huntington's poly-Q toxicity attenuation: score; for K = Huntington's poly-Q toxicity attenuation: summary score
Outline: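 Readout is CellTiter-Glo ATP content measured after 48 hrs. Cells are a PC12 line stably expressing inducible poly(Q)103-Htt-EGFP, where induction produces toxic aggregates.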

[3] = test system: phosphorylated γH2A.X and TP53BP1; experiment: DNA damage marker analysis (immuno-staining); details: for activity at 10 µM: Homo sapiens, WI-38, 24 h; for P = Potential DNA-damaging / R = Potential DNA damaging: human, 24 h
Outline: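 Immunofluorescence read-out for phospho-γH2A.X (Ser-139) and phospho-TP53BP1 (Ser-1778), with DAPI nuclear stain and automated imaging at 10×. WI-38 cells (~8,000 per well) were exposed to small molecules for 24 h after 24 h of culture, with doxorubicin (300 nM, 24 h) or H2O2 (700 μM, 3 h) as positive damage controls.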

[4] = test system: WI-38 cells; experiment: Long-term effects on cell viability (5 days, ATP; morphology, PI imaging); assay type: cell-based; details: 10 μM; for Luminescence signal for ATP measurement, day-1 Average / Luminescence signal for ATP measurement, day-2 Average / Luminescence signal for ATP measurement, day-3 Average / Luminescence signal for ATP measurement, day-4 Average / Luminescence signal for ATP measurement, day-5 Average / viability at 10 µM: Batch 1; for Luminescence signal for ATP measurement, day-1 Average / Luminescence signal for ATP measurement, day-2 Average / Luminescence signal for ATP measurement, day-3 Average / Luminescence signal for ATP measurement, day-4 Average / Luminescence signal for ATP measurement, day-5 Average: n = 6, day-0 luminescence = 320956 ± 24708; for viability at 10 µM: Homo sapiens, WI-38, 120 h, DMSO ctrl = 100.0%, read-out: ATP luminescence by day-5 normalized; for Luminescence signal for ATP measurement, day-5 Average / viability at 10 µM: day-5; for O = Potential toxicity / Q = Potential toxicity: human, 5 days;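 on Luminescence signal for ATP measurement, day-2 Average: compounds at 10 µM with ATP read daily over 5 days of treatment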;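 on Luminescence signal for ATP measurement, day-3 Average: compounds at 10 µM with ATP read daily over 5 days of treatment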;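 on Luminescence signal for ATP measurement, day-4 Average: compounds at 10 µM with ATP read daily over 5 days of treatment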;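 on Luminescence signal for ATP measurement, day-5 Average: compounds at 10 µM with ATP read daily over 5 days of treatment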
[5] = test system: WI-38 cells; details: for No H2O2 stress treatment, at 10 uM (fold change): normalized ATP measurement; for Assay 1: H2O2-resistant: YES/NO, if NO, possibly due to repeated freezing/thawing of stocks
[6] = Exp. 1, WI-38 cells, read-out: Exp. 1, under MMS stress treatment, at 10 uM (fold change)
[7] = Exp. 2, WI-38 cells, read-out: Exp. 2, under MMS stress treatment, at 10 uM (fold change)
[8] = score in summary of 38 core set hits
[9] = read-out: Experiment 1, H2A.X-P DNA damage foci staining (no H2O2 stress treatment), at 10 uM
[10] = read-out: Experiment 2, H2A.X-P DNA damage foci staining (no H2O2 stress treatment), at 10 uM
[11] = read-out: Experiment 2, H2A.X-P DNA damage foci staining (under H2O2 stress treatment), at 10 uM
[12] = read-out: Experiment 2, TP53BP1-P DNA damage foci staining (no H2O2 stress treatment), at 10 uM
[13] = read-out: Experiment 2, TP53BP1-P DNA damage foci staining (under H2O2 stress treatment), at 10 uM
[14] = WI-38 cells, 10 μM, (*) = compromised ability to protect cells from H2O2, could be due to stability issue
[15] = asterisks indicate the loss of the ability to protect cells from H2O2 over time
[16] = derived from dose response curves, 0.6-20 uM, H2O2-resistance of WI-38 cells
[17] = read-out: Est. ED50, dose response 0.6-20 μM, H2O2-resistance

SMILES | fold induction at 10 µM [1, 6] | fold induction at 10 µM [1, 7] | B = MMS resistant [1, 8] | B = MMS resistant ([1]; summary score) | D = Triple resistant ([1]; summary score) | M = Huntington's poly-Q toxicity attenuation [2] | K = Huntington's poly-Q toxicity attenuation [2] | activity at 10 µM [3, 9] [%] | activity at 10 µM [3, 10] [%] | activity at 10 µM [3, 11] [%] | activity at 10 µM [3, 12] [%] | activity at 10 µM [3, 13] [%] | P = Potential DNA-damaging [3] | R = Potential DNA damaging [3] | Luminescence signal for ATP measurement, day-1 Average [4] | Luminescence signal for ATP measurement, day-2 Average [4] | Luminescence signal for ATP measurement, day-3 Average [4] | Luminescence signal for ATP measurement, day-4 Average [4] | Luminescence signal for ATP measurement, day-5 Average [4] | viability at 10 µM [4] [%] | also measured
[O-][n+]1onc2c3nsnc3c(Br)cc21 [O17] | 0.86 | 5.33 | 0 | 0 | 0 | 0 | 0 | 96.7 | 72.1 | 129 | 148 | 349 | 0 | 0 | 507143 | 697351 | 849445 | 1073975 | 1070851 | 104 | O = Potential toxicity [4]: 0; Q = Potential toxicity [4]: 0; H2O2-resistant [5, 14]: YES; No H2O2 stress treatment, at 10 uM (fold change) ([5]; WI-38 cells): 1.06 fold change; H2O2-resistant [5, 15]: YES; EC50 [5, 16]: 8.5 µM; EC50 [5, 17]: 8.5 µM
Cc1cc(C)c(C(=O)/C=C/c2ccccc2F)c(O)n1 [O18] | 1.11 | 1.48 | 0 | 1 | 2 | 0 | 0 | 364 | 143 | 137 | 183 | 450 | 0 | 0 | 453443 | 639628 | 693776 | 825623 | 760275 | 74 | Assay 3: MMS-resistant [1]: YES; Assay 5: Triple resistant [1]: YES; O = Potential toxicity [4]: 0; Q = Potential toxicity [4]: 0; H2O2-resistant [5, 14]: YES; No H2O2 stress treatment, at 10 uM (fold change) ([5]; WI-38 cells): 0.99 fold change; Assay 1: H2O2-resistant [5]: YES; H2O2-resistant [5, 15]: YES; EC50 [5, 16]: 9.8 µM; EC50 [5, 17]: 9.8 µM
COC(=O)CCc1sc2c(c1[N+](=O)[O-])NC(=O)CCC2 [O20] | 2.17 | 1.46 | 0 | 1 | 2 | 0 | 0 | 115 | 130 | 178 | 108 | 544 | 0 | 0 | 544305 | 770055 | 888893 | 997113 | 926888 | 90.3 | Assay 3: MMS-resistant [1]: YES; Assay 5: Triple resistant [1]: YES; O = Potential toxicity [4]: 1; Q = Potential toxicity [4]: 0; H2O2-resistant [5, 14]: YES; No H2O2 stress treatment, at 10 uM (fold change) ([5]; WI-38 cells): 1.12 fold change; Assay 1: H2O2-resistant [5]: YES; H2O2-resistant [5, 15]: YES; EC50 [5, 16]: 12.9 µM; EC50 [5, 17]: 12.9 µM
COc1ccc(/C=C2\SC(=N)N(c3nccs3)C2=O)cc1 [O21] | 0.74 | 0.94 | 0 | 0 | 0 | 0 | 0 | 161 | 216 | 127 | 196 | 620 | 1 | 1 | 460366 | 542268 | 557236 | 677875 | 550651 | 53.6 | O = Potential toxicity [4]: 1; Q = Potential toxicity [4]: 1; H2O2-resistant [5, 14]: YES; No H2O2 stress treatment, at 10 uM (fold change) ([5]; WI-38 cells): 0.92 fold change; H2O2-resistant [5, 15]: YES; EC50 [5, 16]: 18.1 µM; EC50 [5, 17]: 18.1 µM
CC(C)(C)c1ccc(OCC(=O)Nc2ccc3c4c(cccc24)C(=O)NC3=O)cc1 [O22] | 3.22 | 14.8 | 1 | 1 | 2 | 0 | 0 | 101 | 121 | 210 | 154 | 510 | 0 | 0 | 435891 | 566145 | 690403 | 840178 | 805461 | 78.4 | MMS-resistant [1]: YES; Multiplex resistance to cadmium, MMS and H2O2 ([1]; 0.25 μM to 20 μM, repurchased molecules): reproducibly conferred multiplex resistance; Triple resistant [1]: YES; MMS-resistant ([1]; WI-38 cells, 10 μM): YES; Triple resistant ([1]; WI-38 cells, 10 μM): YES; Assay 3: MMS-resistant [1]: YES; Assay 5: Triple resistant [1]: YES; O = Potential toxicity [4]: 0; Q = Potential toxicity [4]: 0; H2O2-resistant [5, 14]: YES; No H2O2 stress treatment, at 10 uM (fold change) ([5]; WI-38 cells): 0.96 fold change; Assay 1: H2O2-resistant [5]: YES; H2O2-resistant [5, 15]: YES; EC50 [5, 17]: 20 µM
COc1cccc(/C=C2\CN(C)C/C(=C\c3cccc(OC)c3OC)C2=O)c1OC [O23] | 1.04 | 1.28 | 0 | 0 | 0 | 0 | 0 | 79.9 | 326 | 33.4 | 42.4 | 13.2 | 0 | 0 | 329880 | 149226 | 52831 | 53125 | 52771 | 5.1 | O = Potential toxicity [4]: 1; Q = Potential toxicity [4]: 1; H2O2-resistant [5, 14]: YES (*); No H2O2 stress treatment, at 10 uM (fold change) ([5]; WI-38 cells): 0.76 fold change; Assay 1: H2O2-resistant [5]: YES; H2O2-resistant [5, 15]: YES (*); EC50 [5, 16]: 4.9 µM; EC50 [5, 17]: 4.9 µM
